Source: US20120178626A1, “SYNERGISTIC HERBICIDAL COMPOSITION CONTAINING PROPYZAMIDE AND BENFLURALIN” (DOW AGROSCIENCES LLC, priority 2011, published 2012)

Experiments:
Assay in all cases: Field trial, percent visual weed control, soil-applied tank mixes
Assay type in all cases: in vivo
Conditions in all cases: applied to soil
[1] = system: Venice mallow (Hibiscus trionum, HIBTR)
Description: (§1) These trials were conducted under field conditions in USA. Trial sites were located in California. The trials were conducted using normal small plot research methodology. Trial plots were between 2 to 4.5 meters (m) wide by 5.5 to 10 m long. All treatments were applied using a randomized complete block trial design with 4 replications per treatment. The trial sites had naturally occurring populations of weeds. The weed spectrum included, but was not limited to, redroot pigweed (Amaranthus retroflexus, AMARE), Shepherds purse (Capsella bursa-pastoris, CAPBP) and Venice mallow (Hibiscus trionum, HIBTR). Treatments consisted of tank mixes of the commercial formulations of propyzamide and benfluralin applied in water directly to the soil. The application volumes were between 93.5 to 187 liters per hectare (L/ha). All application were made using precision gas backpack hand sprayers using a 2 or 3 m boom using flat fan (80° or 110°) nozzles to broadcast the treatments on the soil.
(§2) The treated plots and control plots were rated blind at various intervals after application. Ratings were based of Percent (%) Visual weed control, where 0 corresponds to no control and 100 corresponds to complete control.
(§3) Data was collected for all trials and analyzed using various statistical methods.
(§4) Colby's equation was used to determine the herbicidal effects expected from the mixtures (Colby, S. R. Calculation of the synergistic and antagonistic response of herbicide combinations. Weeds 1967 15, 20-22).
(§5) The following equation was used to calculate the expected activity of mixtures containing two active ingredients, A and B:
(§6) A=observed efficacy of active ingredient A at the same concentration as used in the mixture;
(§7) B=observed efficacy of active ingredient B at the same concentration as used in the mixture.

[2] = system: redroot pigweed (Amaranthus retroflexus, AMARE)
Description: as §1, §2, §3, §4, §5, §6, §7

[3] = system: Shepherds purse (Capsella bursa-pastoris, CAPBP)
Description: as §1, §2, §3, §4, §5, §6, §7

[4] = propyzamide 0, benfluralin 340 g ai/ha, 50 Days After Application
[5] = propyzamide 210 g ai/ha, benfluralin 0, 50 Days After Application

Row | SMILES | % Weed Control HIBTR, Ob (percent control observed) [1, 4] | % Weed Control AMARE, Ob (percent control observed) [2, 4] | % Weed Control CAPBP, Ob (percent control observed) ([3]; propyzamide 0, benfluralin 670 g ai/ha, 50 Days After Application) | % Weed Control HIBTR, Ob (percent control observed) [1, 5] | % Weed Control AMARE, Ob (percent control observed) [2, 5] | % Weed Control CAPBP, Ob (percent control observed) [3, 5]
1 | CCCCN(CC)c1c([N+](=O)[O-])cc(C(F)(F)F)cc1[N+](=O)[O-] [Benfluralin, N-butyl-N-ethyl-2,6-dinitro-4-(trifluoromethyl)-benzenamine] | 0% | 0% | 3% |  |  | 
2 | C#CC(C)(C)NC(=O)c1cc(Cl)cc(Cl)c1 [Propyzamide, 3,5-dichloro-N-(1,1-dimethyl-2-propynyl)-benzamide] |  |  |  | 20% | 13% | 20%
